Measured values: patent publication US7098195B2, “Fluorinated glucosamine analogs useful for modulating post-translational glycosylations on cells” (Health Research, Inc., priority 2001, dated 2006)
Read-outs that look alike come from different tables or passages of the source.

What was measured:
[1] = test system: P-selectin ligand activity of CLA+ T-lymphocytes; assay: Parallel-plate flow chamber, CLA+ T-cell tethering and rolling on P-selectin chimera; type: cell-based, human
Description: (§1) To analyze the affects of 4-F-GlcNAc on the function of CLA on human T-cells, we examined the ability of 4-F-GlcNAc-treated (0.05, 0.1, 0.5 mM for 30 hrs) CLA-+ T-cells cultures to engage with immobilized E- and P-selectin chimera in the parallel-plate flow chamber. As described for flow cytometric analyses (Example 13), cells were first pretreated with neuraminidase to remove terminal sialic acid residues required for HECA-452 reactivity and for E- and P-selectin ligand activity of CLA. This approach allowed for the assessment on de novo synthesized CLA molecules.
(§2) Tethering and rolling of human T-cells on recombinant human E- and P-selectin-Ig chimera (provided by Dr. Robert Fuhlbrigge, Harvard Medical School) and human L-selectin-Ig (gift from Dr. Ray Camphausen, Wyeth/Genetics Institute, Inc., Cambridge, Mass.) were analyzed in the parallel-plate flow chamber under physiologic shear stress conditions (3). To prepare E- and P-selectin-Ig chimera spots, protein A (300 μg/15 μl 0.1M NaHCO3) was adsorbed to Ten-twenty-nine™ Petri dishes for 2 h at 37° C. Human serum albumin ([…] PBS) then added and incubated for 2 h at 37° C. to block non-specific binding sites. E-selectin-Ig (50 ng/50 μl PBS) or P-selectin-Ig (50 ng/50 μl PBS) solutions was pipetted directly over the pre-existing protein A spots for 18 h at 4° C. To prepare L-selectin-Ig spots, L-selectin-Ig (300 ng/15 μl PBS) or isotype control human IgG (300 ng/15 μl) were adsorbed directly to plastic (non-protein A-coated) for 18 h at 4° C. and blocked in 100% FBS for 2 h at 4° C.
(§3) CLA^+ T-cells or freshly isolated PBL were treated with neuraminidase and metabolic glycosylation inhibitors or with protease (bromelain) as described above, washed twice in HBSS, suspended at 2×10^6/ml in HBSS/10 mM HEPES/2 mM CaCl2 (H/H/Ca^++) and infused into the chamber over selectin chimeras. Protease treatment was performed to control for residual E-selectin activity not attributable to the expression of CLA on a protein scaffold. Cell tethering was permitted at 0.6 dynes/cm^2 for 1 min, then stepwise increments in shear stress every 15 sec were employed to a final shear stress level of 60 dynes/cm^2. The number of cells rolling/viewing field (at 100× magnification) was quantified at each level of shear stress in triplicates for a minimum of three experiments. […] Negative control experiments were performed in parallel, wherein cell binding was examined in H/H adhesion assay medium containing 5 mM EDTA as well as assaying cell binding to human IgG isotype control.
(§4) Utilizing the parallel-plate flow chamber under physiologic shear stress conditions, E-, P- and L-selectin ligand activities of human CLA^+ T-cells treated were analyzed in an identical manner as cells prepared for Western blotting and autoradiography studies.

[2] = test system: L-selectin ligand activity of human CLA+ T-cells; assay: Parallel-plate flow chamber, CLA+ T-cell rolling on L-selectin chimera; type: cell-based
Description: as §2, §3, §4

[3] = test system: E-selectin ligand activity of murine Th1 cells; assay: Flow chamber analysis of E-selectin binding on murine Th1 cells; type: cell-based, mouse
From the text: (§5) CD4+ splenocytes were isolated from C57BL-6 mice by anti-murine CD4 L3T4 magnetic bead technology (Miltenyi Biotec) according to manufacturer's protocol. […] Culturing murine T helper cells in the presence of murine IL-12 and anti-murine IL-4 produces selectin binding Th1 cells by up-regulating FucTVII (69, 70) and core 2 enzyme (43–45, 71, 72), both critical for selectin ligand synthesis (i.e. decoration of PSGL-1 (67, 68)), and prevents the production of non-selectin binding Th2 cells (67–72). Th1 cells were also generated from mice deficient in α1,3 fucosyltransferase, FucTVII, and served as negative controls (33, 38, 40). Cells were harvested and re-plated at 2×10^6cells/ml on non-Ab coated plastic with murine IL-2 (20 ng/ml) in the presence or absence of murine IL-12 (10 ng/ml) and anti-murine IL-4 moAb 11B11 (10 μg/ml) for 48 h. […] Glycosylation inhibitors were added to cultures on day 6.5 for 30 hr, after first treating cells with neuraminidase (0.1 U/ml for 1 hr at 37° C.) to remove all cell surface terminal sialic acid resides and E and P-selectin ligand activity. Since selectin ligands are dependent on terminal sialic acid (α2,3 N-acetylneuraminic acid) for activity, this approach allowed for analysis of de novo synthesized selectin ligands in the presence of 0.05 mM 4-F-GlcNAc, N-glycan inhibitors, 0.23 mM swainsonine and 0.02 mM tunicamycin, and 1 mM GlcNAc (negative control).

[4] = test system: E-selectin ligand activity of CLA+ T-lymphocytes; assay: Parallel-plate flow chamber, CLA+ T-cell tethering and rolling on E-selectin chimera; type: cell-based, human
Description: as §1, §2, §3, §4

[5] = test system: P-selectin ligand activity of murine Th1 cells; assay: Flow chamber analysis of P-selectin binding on murine Th1 cells; type: cell-based, mouse
From the text: as §5

[6] = test system: α-mannose (ConA staining); type: cell-based, human; conditions: compared with PBS or GlcNAc treatments
Description: For lectin blotting, cell lysates (25 μg/spot) were spotted onto methanol-permeabilized PVDF membrane and blocked in FBS for 1 h at RT. Blots were then probed with AP-Canavalia ensiformis agglutinin (ConA) (2.0 μg/ml PBS; specificity: α-mannose), AP-Triticum vulgaris (Wheat germ) agglutinin (WGA) (0.5 μg/ml PBS; specificity: terminal GlcNAc or GlcNAcβ1,4GlcNAc) or AP-Lycopersicon esculentum (tomato lectin) agglutinin (LEA) (1.0 μg/ml PBS; specificity: (Galβ1,4GlcNAc)n) for 1 h at RT (All lectins from EY Labs., Inc., San Mateo, Calif.). After washing 3× in PBS/0.1% Tween-20 and 1× in PBS (10 min each), blots were developed with Western Blue®.
To analyze and identify the glycan modifications on CLA^+ T-cells treated with 4-F-GlcNAc, lectin blotting experiments were performed with ConA (Specificity: α-mannose), WGA (Specificity: terminal GlcNAc or GlcNAcβ1,4GlcNAc) and LEA (Specificity: {Galβ1,4GlcNAc}n).

[7] = 30 h following neuraminidase digestion, drug control
[8] = 30 hr after neuraminidase, 0.05 mM 4-F-GlcNAc, 0.23 mM swainsonine, 0.02 mM tunicamycin, 1 mM GlcNAc
[9] = at 2.0 dynes/cm^2, tunicamycin 0.02 mM, swainsonine 0.23 mM, 4-F-GlcNAc 0.05 mM, BAG 2.0 mM, p<0.01
[10] = neuraminidase then 0.1 and 0.5 mM for 30 hrs

Compound | recovery of P-selectin ligand activity [1, 7] [% recovery] | recovery of L-selectin ligand activity [2, 7] [% recovery] | recovery of E-selectin ligand activity of Th1 cells [3, 8] | recovery of E-selectin ligand activity [4, 7] [% recovery] | recovery of P-selectin ligand activity of Th1 cells [5, 8] | rolling adhesions on P-selectin chimera [1] | rolling adhesions on L-selectin chimera [2] | recovery of E-selectin ligand activity of Th1 cells [3] | rolling adhesions on E-selectin chimera [4] | recovery of P-selectin ligand activity of Th1 cells [5] | ConA staining of lysates [6] | difference in cell rolling frequency on P-selectin chimera vs PBS recovery ([1]; 0.05 mM, p<0.001) | rolling adhesions on P-selectin chimera [1, 9] | CLA+ T-cell tethering and rolling mediated by P-selectin [1, 10] | rolling adhesions on L-selectin chimera [2, 9] | E-selectin ligand activity compared with protease treatment [4] | difference in cell rolling frequency on E-selectin chimera vs PBS recovery ([4]; 0.05 mM, p<0.001) | rolling adhesions on E-selectin chimera [4, 9] | CLA+ T-cell tethering and rolling mediated by E-selectin [4, 10]
CC(=O)N[C@H]1C(O)O[C@H](CO)[C@@H](O)[C@@H]1O (stereo partly shown) [GlcNAc, N-acetylglucosamine] | > 80 | > 80 | no effect | > 80 | no effect | – | – | – | – | – | – | – | – | – | – | – | – | – | –
O[C@H]1[C@H]2[C@H](O)CCCN2C[C@H]1O [swainsonine] | – | – | – | – | – | no effect | no effect | no effect | no effect | no effect | enhanced | – | – | – | – | – | – | – | –
CC(=O)N[C@H]1C(OC(C)=O)O[C@H](COC(C)=O)[C@@H](F)[C@@H]1OC(C)=O (stereo partly drawn) [4-F-GlcNAc, 2-acetamido-2-deoxy-1,3,6-tri-O-acetyl-4-deoxy-4-fluoro-D-glucopyranose] | – | – | completely inhibited | – | completely inhibited | – | – | – | – | – | no effect | statistically significant | significant reductions | completely abolished | significant reductions | did not reduce E-selectin ligand activity below that of protease-treatment | statistically significant | significant reductions | completely abolished
tunicamycin | – | – | – | – | – | significant reductions | significant reductions | completely inhibited | significant reductions | completely inhibited | eliminated | – | – | – | – | – | – | – | –
